Experiment [1] concerns the target T1, Lymnaea AChBP (Lymnaea stagnalis, UniProt P58154). Kind of experiment: biochemical. Format: binding.
For experiment [2], the target named is T2, Aplysia AChBP (Aplysia californica, UniProt Q8WSF8). As to the kind of experiment: biochemical. The class given is binding.
In experiment [3] the target is T2, Aplysia AChBP. As to the kind of experiment: biochemical. Format: binding. This is another data set of the same source.
Experiment [4] concerns the target T1, Lymnaea AChBP. Kind of experiment: biochemical. The class given is binding. This is another data set of the same source.
Target sequence in this assay (P58154 20-229 limits assumed): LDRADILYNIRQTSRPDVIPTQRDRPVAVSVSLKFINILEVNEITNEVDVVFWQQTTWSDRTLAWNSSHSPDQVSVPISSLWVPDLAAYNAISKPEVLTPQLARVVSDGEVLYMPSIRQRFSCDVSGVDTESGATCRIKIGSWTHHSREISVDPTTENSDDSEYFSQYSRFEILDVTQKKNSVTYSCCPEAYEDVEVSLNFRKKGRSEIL
The target of experiment [5] is T1, Lymnaea AChBP. The following applies: read-out: Lymnaea Kd; cited from earlier work.
Target sequence in this assay (P58154 20-229 limits assumed): as above
In experiment [6] the target is T1, Lymnaea AChBP. Format: binding.
Target sequence in this assay (P58154 20-229 limits assumed): as above

Entries after “also recorded” stand apart in the source; their conditions may differ. Where two headings read alike, the source gives them in different places.

T2 sequence (Q8WSF8 18-236): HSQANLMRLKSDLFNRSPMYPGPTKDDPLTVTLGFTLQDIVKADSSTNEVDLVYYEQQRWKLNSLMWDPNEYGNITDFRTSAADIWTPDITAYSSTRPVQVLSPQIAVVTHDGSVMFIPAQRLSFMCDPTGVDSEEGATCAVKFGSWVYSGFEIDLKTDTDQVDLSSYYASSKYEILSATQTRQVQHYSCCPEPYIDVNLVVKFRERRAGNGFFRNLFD

For the molecule “5-Dimethylaminonaphthylsulfonamidoethyltrimethylammonium [Dansyl-C2-choline]”, at Lymnaea AChBP [1], the k1 was 2.1e+08 M⁻¹ s⁻¹ and the “k−1” value was found to be 2.9 s⁻¹. Besides, the Kd on Lymnaea AChBP [1] (read-out: Kd) was found to be 14 nM.
Take `CN1CCCC1c1cccnc1` (single isomer, unassigned; (-)) [(−)-Nicotine]: on Lymnaea AChBP [1], the k1 was found to be 1.5e+08 M⁻¹ s⁻¹, the “k1 Lymnaea” value is 1.5e+08 M⁻¹ s⁻¹, the “k−1” value turned out to be 5.7 s⁻¹ and the “k−1 Lymnaea” value was determined as 5.7 s⁻¹. At Aplysia AChBP [2], the “k1 Aplysia” value stood at 2.3e+08 M⁻¹ s⁻¹ and the “k−1 Aplysia” value stood at 49 s⁻¹. Also, at Aplysia AChBP [3], binding was put at a Kd of 245 nM and the “change of tryptophan fluorescence on binding, A-AChBP” value (“change … A-AChBP” for short) is given as “markedly quenched fluorescence”. The “change of tryptophan fluorescence on binding, L-AChBP” value (“change … L-AChBP” for short) on Lymnaea AChBP [4] is given as “markedly quenched fluorescence”.
Turning to `COc1cc2c3cc1Oc1cc(ccc1O)C[C@@H]1c4c(cc(OC)c(O)c4Oc4ccc(cc4)C[C@@H]3N(C)CC2)CC[N+]1(C)C` [d-Tubocurarine], on Lymnaea AChBP [1], the k1 was found to be 2e+08 M⁻¹ s⁻¹ and the “k−1” value worked out at 30 s⁻¹. In addition, the Kd at Lymnaea AChBP [1] (read-out: Kd) is 150 nM.
`C[N+](C)(C)CCCCCCCCCC[N+](C)(C)C` [Decamethonium]: at Lymnaea AChBP [1], the Kd amounted to 380 nM, the k1 was 3.2 ± 0.17 ×10^8 M^−1 s^−1 and the “k−1” value is 120 ± 17 s⁻¹.
As to `CCN1C[C@]2(COC(=O)c3ccccc3N3C(=O)C[C@H](C)C3=O)CC[C@H](OC)[C@@]34[C@@H]5C[C@H]6[C@H](OC)[C@@H]5[C@](O)(C[C@@H]6OC)[C@@](O)([C@@H](OC)[C@H]23)[C@@H]14` [Methyllycaconitine], on Lymnaea AChBP [1], the “k1 Lymnaea” value came out at 1.3e+07 M⁻¹ s⁻¹ and the “k−1 Lymnaea” value was 0.005 s⁻¹. Also, at Aplysia AChBP [2], the Kd came out at 2.8 nM, the “Kd Ratio L/A” value stood at 0.14, the “k1 Aplysia” value worked out at 4.4e+07 M⁻¹ s⁻¹ and the “k−1 Aplysia” value is 0.12 s⁻¹. Also, the Kd at Lymnaea AChBP [5] is 0.41 nM.
On to `Clc1ccc(C2CC3CCC2N3)cn1` (stereo not shown) [Epibatidine], for which, on Lymnaea AChBP [1], the Kd was 0.16 nM, the k1 is reported as 1.7 ± 0.26 ×10^8 M^−1 s^−1, the “k1 Lymnaea” value is 1.7e+08 M⁻¹ s⁻¹ and the “k−1” value is 0.027 ± 0.037 s⁻¹. For the same molecule, the “k−1 Lymnaea” value on Lymnaea AChBP [1] was found to be 0.027 s⁻¹. On Aplysia AChBP [2], binding was put at a Kd of 14 nM, the “Kd Ratio L/A” value is recorded as 0.011, the “k1 Aplysia” value is 2.5e+08 M⁻¹ s⁻¹ and the “k−1 Aplysia” value turned out to be 3.4 s⁻¹. For the same molecule, the “change … A-AChBP” value at Aplysia AChBP [3] is “markedly quenched fluorescence”. Further, the “change … L-AChBP” value on Lymnaea AChBP [4] is “markedly quenched fluorescence”. On Lymnaea AChBP [6], the “quenching of the intrinsic tryptophan fluorescence” value is “about 50%”.
`O=C1C[C@@H]2OCC=C3CN4CC[C@]56c7ccccc7N1[C@H]5[C@H]2[C@H]3C[C@H]46` [Strychnine]: the dissociation constant Kd amounted to 23 nM on Lymnaea AChBP [1] and 15 nM on Aplysia AChBP [2].
Turning to α-Bungarotoxin, at Lymnaea AChBP [1], the k1 is 0.0097 ± 0.002 ×10^8 M^−1 s^−1, the “k1 Lymnaea” value was found to be 900000 M⁻¹ s⁻¹, the “k−1” value is 0.0017 ± 0.0003 s⁻¹ and the “k−1 Lymnaea” value came out at 0.001 s⁻¹. On Lymnaea AChBP [1], the “rate of association slower than for epibatidine” value was ~200 fold and the “unimolecular step k2 (slow phase limiting value)” value was determined as 0.34 s⁻¹. In addition, at Lymnaea AChBP [1] (read-out: Kd), the Kd was found to be 1.8 nM. Also, on Aplysia AChBP [2], the “Kd Ratio L/A” value amounted to 0.0071, the “k1 Aplysia” value was 1e+06 M⁻¹ s⁻¹ and the “k−1 Aplysia” value amounted to 0.32 s⁻¹. The “lower affinity for A-AChBP than for L-AChBP” value on Aplysia AChBP [3] is 100 fold. Further, the Kd at Aplysia AChBP [3] (read-out: Aplysia Kd) came out at 250 nM. Also, on Lymnaea AChBP [6], the “quenching of the intrinsic tryptophan fluorescence” value is given as 15-20%. Also, the Kd at Lymnaea AChBP [5] was 1.8 nM.
As for `CC(=O)OCC[N+](C)(C)C` [Acetylcholine], the Kd at Aplysia AChBP [3] worked out at 33000 nM.
For the molecule `C[N+](C)(C)CCOC(N)=O` [Carbachol], on Aplysia AChBP [2], the “Kd Ratio L/A” value was found to be 0.023. In addition, at Aplysia AChBP [3], binding was characterised by a dissociation constant (Kd) of 240000 nM and the “change … A-AChBP” value is recorded as “enhanced fluorescence emission”. On Lymnaea AChBP [4], this molecule displayed a Kd of 5.6 µM.
As for `CC[N+](CC)(CC)CCOc1cccc(OCC[N+](CC)(CC)CC)c1OCC[N+](CC)(CC)CC` [Gallamine], at Lymnaea AChBP [1], the Kd worked out at 140 nM; the “change of tryptophan fluorescence on binding, Lymnaea AChBP (Example 1)” value is “enhancement of the tryptophan fluorescence; also recorded: increase in fluorescence”; the k1 is recorded as 2.5 ± 0.14 ×10^8 M^−1 s^−1; the “k1 Lymnaea” value was determined as 2.5e+08 M⁻¹ s⁻¹. Besides, on Lymnaea AChBP [1], the “k−1” value was 36 ± 6.5 s⁻¹ and the “k−1 Lymnaea” value amounted to 36 s⁻¹. Further, on Aplysia AChBP [2], the “Kd Ratio L/A” value is 1.2, the “k1 Aplysia” value amounted to 2.5e+08 M⁻¹ s⁻¹ and the “k−1 Aplysia” value was 65 s⁻¹. In addition, on Aplysia AChBP [3], binding was put at a Kd of 120 nM and the “change … A-AChBP” value was “enhanced fluorescence emission”. Further, at Lymnaea AChBP [4], the “change … L-AChBP” value was “enhanced tryptophan fluorescence”.
Take “5-Dimethylaminonaphthylsulfonamidohexyltrimethylammonium [Dansyl-C6-choline]”: the k1 at Lymnaea AChBP [1] was determined as 1.3e+08 M⁻¹ s⁻¹. For the same molecule, the “k−1” value on Lymnaea AChBP [1] is 7.6 s⁻¹. Also, the Kd at Lymnaea AChBP [1] (read-out: Kd) was 58 nM; on Aplysia AChBP [3] (read-out: Aplysia Kd), 1600 nM; at Lymnaea AChBP [5], 110 nM. Further, on Aplysia AChBP [2], the “Kd Ratio L/A” value came out at 0.069.

B1: α-Cobratoxin: α-neurotoxin, peptide toxin from elapid venom (protein)
chain: IRCFITPDITSKDCPNGHVCYTKTWCDAFCSIRGKRVDLGCAATCPTVKTGVDIQCCSTDNCNPFPTRKRP
Regarding B1, in the experiment with Lymnaea AChBP [1], the k1 came to 3.3e+06 M⁻¹ s⁻¹ and the “k−1” value amounted to 0.011 s⁻¹. The dissociation constant Kd with Lymnaea AChBP [1] (read-out: Kd) is 3.2 nM.

For orientation: Kd means the free concentration of one partner at which half of the binding sites on the other are occupied at equilibrium, for simple one-to-one binding.
